The record followed here is US20040229246A1, “Diagnostic markers for therapeutic treatment” (Can-Fite Biopharam Ltd., priority 2002, published 2004).

Test [1] concerns A3AR. In words: Northern blot analysis of A3AR mRNA in B16-F10 melanoma cells. It is filed as cell-based. The settings on record: B16-F10 melanoma cells treated with IB-MECA. The method, then:
Total RNA was isolated from B16-F10 melanoma cells treated with IB-MECA, utilizing Tri-reagent (Sigma, Saint Louis). The samples were then subjected twice to phenol:chloroform extraction and washed with chloroform. RNA was precipitated with sodium acetate/ethanol following washing with ethanol, then denatured, separated (25 μg per lane) in 1.1% formaldehyde agarose gels and transferred to Hybond-N membrane. The 390 bp EcoRI fragment from A3AR cDNA clone of mouse (TAA3I.S), kindly supplied by Dr Kathia Ravid, was prepared by random-primed synthesis. Probes were used in RNA blot analysis at a hybridization temperature of 42° C. in the presence of 50% formamide.

The test system of test [2] is PKAc, PKB/Akt, β-catenin, c-myc, cyclin D1, NF-κB, GSK-3β. In words: Immunoblot analysis of protein extracts of HCT-116 human colon carcinoma cells. It is filed as cell-based. The settings on record: HCT-116 cells, compared to control. The method, then: To detect the level of expression of the A3AR proteins Western blot analysis was performed. Cells were incubated in the presence and absence of IB-MECA (10 nM), MRS1523 (10 nM), Forskolin (50 nM), 8 Br cAMP (100 μM), Cycloheximide 20 μg/ml or MG 132 (20 nM) for different time periods at 37° C. Cells were then rinsed with ice-cold PBS and transferred to ice-cold lysis buffer (TNN buffer, 50 mM Tris buffer pH=7.5, 150 mM NaCl, NP 40). In the experiment examining the effect of trypsin on A3AR expression, cells were incubated with 0.5 ml of 0.25% trypsin for 5 minutes. The trypsinized cells were washed again with ice-cold PBS, harvested by centrifugation and subjected to lysis in TNN buffer. Cell debris was removed by centrifugation for 10 minutes, at 7500 xg. The supernatant was utilized for Western Blot analysis. Protein concentrations were determined using the Bio-Rad protein assay dye reagent. Equal amounts of the sample (50 μg) were separated by SDS-PAGE, using 12% polyacrylamide gels. The resolved proteins were then electroblotted onto nitrocellulose membranes (Schleicher & Schuell, Keene, NH, USA). Membranes were blocked with 1% bovine serum albumin and incubated with the desired primary antibody (dilution 1:1000) for 24 hours at 4° C. Blots were then washed and incubated with a secondary antibody for 1 hour at room temperature. Bands were recorded using BCIP/NBT color development kit (Promega, Madison, W1, USA). Data presented in the different figures are representative of at least three different experiments.
The effect of IB-MECA on key proteins downstream to A3AR activation in HCT-116 human colon carcinoma cells was also examined in a manner similar to that performed with melanoma cells (see above). FIG. 7 presents Immunoblot analysis of protein extracts derived from colon carcinoma cell, wherein treatment with IB-MECA (right lane) caused down-regulation of PKAc, PKB/Akt, β-catenin, c-myc and cyclin D1 and NF-κB and up-regulation of GSK-3β expression level as compared to control (left lane).
Background: In western blotting, separated proteins are transferred to a membrane and probed.

Test [3] has as its system adjuvant induced arthritis. Description: Adjuvant induced arthritis (AIA) in rats, clinical and histological score. It is filed as in vivo. As for the experimental part: AIA in Rats: Female Lewis rats, aged 8-12 weeks, obtained from Harlan Laboratories (Jerusalem, Israel), were injected subcutaneously (s.c.) at the tail base with 100 μl of suspension composed of incomplete Freund's adjuvant (IFA) with 10 mg/ml heat killed Mycobacterium tuberculosis, (Mt) H37Ra, (Difco, Detroit, USA). To assess the clinical disease activity score, the animals were inspected every second day for clinical arthritis. The scoring system ranged from 0-4 of each limb: 0-no arthritis; 1-redness or swelling of one toe/finger joint; 2-redness and swelling of more than one toe/finger joints; 3-the ankle and tarsal-metatarsal joints involvement; 4-entire paw redness or swelling. The arthritic score was calculated by adding the four individual legs' score to a maximum of 16. For histological scoring, Animals were sacrificed, the legs were removed up to the knee level, fixed in 10% formaldehyde, decalcified, dehydrated, paraffin-embedded, cut into 4 μm sections and stained by Hematoxylin-Eosin. The assessment of all pathologic findings were performed blind using semi-quantitative grading scales of 0 to 4 for the following parameters: a) extent of inflammatory cells' infiltration to the joint tissues; b) synovial lining cell hyperplasia; c) pannus formation; and d) joint cartilage layers destruction. […] TNF-α was measured in synovia, DLN and spleen tissues derived from control and CF101 treated rats. […] Protein concentrations were determined using the Bio-Rad protein assay dye reagent. […] Bands were recorded using BCIP/NBT color development kit (Promega, Madison, Wis., USA). Densitometry of protein expression was normalized against β-actin and expressed as % of control. […]

In test [4] the test system is HCT-116 human colon carcinoma. In words: HCT-116 human colon carcinoma development in mice. It is filed as in vivo. The settings on record: mice inoculated with HCT-116, 10 μg/kg orally daily. The method, then:
Colon Carcinoma: Nude/BalbC male, 10-week-old mice were used. HCT-116 Human colon carcinoma cells (1.2×10^6 cells in 100 μL PBS) were inoculated subcutaneously to the flank of the mice. Treatment was initiated when tumors reached a size of ˜150 mm^3. Each group contained 10 mice, the control group treated with vehicle only, while the test group was administered daily orally with IB-MECA (10 μg/kg).
After 32 days the mice were sacrificed, tumor lesions were excise and protein was extracted for measurements as described above. Tumor size was evaluated by measuring with a caliber width (W) and length (L) and calculated according to the above formula.

As for `CNC(=O)[C@H]1O[C@@H](n2cnc3c(NCc4cccc(I)c4)ncnc32)[C@H](O)[C@@H]1O` [IB-MECA, 1-deoxy-1-[6[[(3-iodophenyl)methyl]amino]-9H-purine-9-yl]-N-methyl-β-D-ribofura-nuronaminde], the “A3AR mRNA expression level” value in test [1] was “increase”. Besides, in test [2], the GSK-3β expression level result was “up-regulation”, the NF-κB level result was “down-regulation”, the PKAc level result was “down-regulation” and the PKB/Akt level result is listed as “down-regulation”. Further, in test [2], the c-myc level entry was “down-regulation”, the “cyclin D1 level” value is recorded as “down-regulation” and the β-catenin level result is “down-regulation”. For the same compound, the “clinical score (inflammatory response)” value in test [3] (10 μg/kg orally twice daily, versus vehicle) is “anti-inflammatory response”. Besides, the histological score result in test [3] (day 28, versus control) is reported as “anti-inflammatory activity”. In addition, the “development of colon carcinoma (tumor size)” value in test [4] is “markedly suppressed”.
